Consider 22 compounds from US9637472B2, “Substituted 6,5-fused bicyclic heteroaryl compounds” (Epizyme, Inc., priority 2011, dated 2017).

Molecules are shown by their SMILES.

As usually defined, the IC50 is the concentration that inhibits the measured activity by half.

EZH2, sequence (Q15910 other isoform, or with tags, fused parts or gaps): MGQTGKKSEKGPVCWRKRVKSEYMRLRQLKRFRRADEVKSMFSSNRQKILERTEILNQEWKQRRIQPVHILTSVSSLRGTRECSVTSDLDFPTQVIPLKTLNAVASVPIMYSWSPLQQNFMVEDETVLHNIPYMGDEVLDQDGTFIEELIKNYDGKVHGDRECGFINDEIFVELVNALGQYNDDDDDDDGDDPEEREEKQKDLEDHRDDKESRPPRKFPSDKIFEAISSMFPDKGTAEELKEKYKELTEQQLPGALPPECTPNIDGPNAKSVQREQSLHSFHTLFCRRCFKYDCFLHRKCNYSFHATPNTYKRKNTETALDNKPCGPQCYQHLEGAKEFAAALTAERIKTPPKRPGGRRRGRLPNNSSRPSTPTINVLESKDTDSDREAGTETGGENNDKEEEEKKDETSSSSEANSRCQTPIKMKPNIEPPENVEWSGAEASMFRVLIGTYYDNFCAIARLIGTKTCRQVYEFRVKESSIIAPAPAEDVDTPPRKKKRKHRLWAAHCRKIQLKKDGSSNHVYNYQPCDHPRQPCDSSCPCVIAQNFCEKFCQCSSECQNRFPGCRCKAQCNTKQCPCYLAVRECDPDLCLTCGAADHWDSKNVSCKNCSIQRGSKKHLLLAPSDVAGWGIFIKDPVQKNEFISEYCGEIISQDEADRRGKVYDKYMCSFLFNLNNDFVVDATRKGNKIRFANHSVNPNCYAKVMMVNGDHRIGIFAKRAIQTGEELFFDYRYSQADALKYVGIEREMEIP
EZH2, sequence (O75530 whole entry partner): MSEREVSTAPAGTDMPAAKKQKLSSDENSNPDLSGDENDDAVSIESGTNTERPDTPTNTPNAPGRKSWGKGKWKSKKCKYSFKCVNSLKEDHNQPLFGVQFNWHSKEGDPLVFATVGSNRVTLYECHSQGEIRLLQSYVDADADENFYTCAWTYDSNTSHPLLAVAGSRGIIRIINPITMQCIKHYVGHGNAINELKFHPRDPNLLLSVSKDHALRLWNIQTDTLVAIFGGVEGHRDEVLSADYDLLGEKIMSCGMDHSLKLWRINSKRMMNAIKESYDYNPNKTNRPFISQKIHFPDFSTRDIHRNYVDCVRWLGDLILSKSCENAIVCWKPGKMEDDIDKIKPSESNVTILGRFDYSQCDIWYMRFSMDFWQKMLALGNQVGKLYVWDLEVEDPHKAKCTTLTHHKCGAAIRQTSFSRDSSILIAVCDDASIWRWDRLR
EZH2, sequence (Q15022 whole entry partner): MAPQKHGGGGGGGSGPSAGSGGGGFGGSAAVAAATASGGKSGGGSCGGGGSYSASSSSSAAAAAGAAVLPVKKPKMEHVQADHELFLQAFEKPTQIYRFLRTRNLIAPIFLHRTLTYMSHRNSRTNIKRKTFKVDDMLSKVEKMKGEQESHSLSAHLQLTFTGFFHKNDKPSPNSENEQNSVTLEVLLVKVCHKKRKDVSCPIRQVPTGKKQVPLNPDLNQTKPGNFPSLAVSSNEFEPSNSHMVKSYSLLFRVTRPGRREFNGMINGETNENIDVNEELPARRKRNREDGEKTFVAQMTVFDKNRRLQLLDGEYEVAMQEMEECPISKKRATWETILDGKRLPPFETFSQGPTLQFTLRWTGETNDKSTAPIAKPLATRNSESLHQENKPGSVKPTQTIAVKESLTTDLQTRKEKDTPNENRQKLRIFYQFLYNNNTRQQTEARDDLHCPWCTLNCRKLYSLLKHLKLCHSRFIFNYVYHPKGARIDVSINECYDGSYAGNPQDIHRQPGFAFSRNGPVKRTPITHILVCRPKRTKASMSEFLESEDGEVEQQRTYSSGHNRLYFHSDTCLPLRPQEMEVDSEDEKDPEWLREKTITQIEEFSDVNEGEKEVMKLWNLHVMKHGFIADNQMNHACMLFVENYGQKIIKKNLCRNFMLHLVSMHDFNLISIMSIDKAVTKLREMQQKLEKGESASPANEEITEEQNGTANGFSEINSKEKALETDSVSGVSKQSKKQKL
EZH2, sequence (Q09028 whole entry partner): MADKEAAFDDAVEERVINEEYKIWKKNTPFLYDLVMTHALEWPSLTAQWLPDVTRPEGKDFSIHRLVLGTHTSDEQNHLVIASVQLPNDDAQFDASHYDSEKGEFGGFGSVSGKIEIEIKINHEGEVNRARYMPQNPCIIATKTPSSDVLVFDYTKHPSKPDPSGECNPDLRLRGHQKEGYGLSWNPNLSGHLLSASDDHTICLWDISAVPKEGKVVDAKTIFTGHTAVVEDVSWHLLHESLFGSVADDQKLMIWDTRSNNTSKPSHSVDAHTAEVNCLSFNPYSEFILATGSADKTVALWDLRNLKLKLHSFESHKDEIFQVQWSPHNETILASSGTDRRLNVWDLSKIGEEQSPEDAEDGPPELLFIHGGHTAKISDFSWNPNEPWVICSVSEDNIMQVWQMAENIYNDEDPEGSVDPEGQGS

The target of the assay is EZH2 (Homo sapiens (Human), UniProt Q15910). Briefly: PRC2 enzyme assay on peptide substrates. The format is biochemical. The conditions noted are these: PRC2 enzyme assays on peptide substrates; 4 nM enzyme, 30 min preincubation at 25° C.; read-out: EZH2 IC50. From the text:
General Materials. S-adenosylmethionine (SAM), S-adenosylhomocyteine (SAH), bicine, KCl, Tween20, dimethylsulfoxide (DMSO) and bovine skin gelatin (BSG) were purchased from Sigma-Aldrich at the highest level of purity possible. Dithiothreitol (DTT) was purchased from EMD. ^3H-SAM was purchased from American Radiolabeled Chemicals with a specific activity of 80 Ci/mmol. 384-well streptavidin Flashplates were purchased from PerkinElmer.
Substrates. […] The sequences are listed below.
Recombinant PRC2 Enzymes. Human PRC2 enzymes were purified as 4-component enzyme complexes co-expressed in Spodoptera frugiperda (sf9) cells using a baculovirus expression system. The subunits expressed were wild-type EZH2 (NM_004456) or EZH2 Y641F, N, H, S or C mutants generated from the wild-type EZH2 construct, EED (NM_003797), Suz12 (NM_015355) and RbAp48 (NM_005610). The EED subunit contained an N-terminal FLAG tag that was used to purify the entire 4-component complex from sf9 cell lysates.
General Procedure for PRC2 Enzyme Assays on Peptide Substrates. The assays were all performed in a buffer consisting of 20 mM bicine (pH=7.6), 0.5 mM DTT, 0.005% BSG and 0.002% Tween20, prepared on the day of use. […] DMSO (1 μL) was added to columns 11, 12, 23, 24, rows A-H for the maximum signal control, and SAH, a known product and inhibitor of PRC2 (1 μL) was added to columns 11, 12, 23, 24, rows I-P for the minimum signal control. A cocktail (40 μL) containing the wild-type PRC2 enzyme and H3K27me0 peptide or any of the Y641 mutant enzymes and H3K27me2 peptide was added by Multidrop Combi (Thermo). The compounds were allowed to incubate with PRC2 for 30 min at 25° C., then a cocktail (10 μL) containing a mixture of non-radioactive and ^3H-SAM was added to initiate the reaction (final volume=51 μL). […] The assays were stopped by the addition of non-radioactive SAM (10 μL) to a final concentration of 600 μM, which dilutes the ^3H-SAM to a level where its incorporation into the peptide substrate is no longer detectable. 50 μL of the reaction in the 384-well polypropylene plate was then transferred to a 384-well Flashplate and the biotinylated peptides were allowed to bind to the streptavidin surface for at least 1 h before being washed three times with 0.1% Tween20 in a Biotek ELx405 plate washer. The plates were then read in a PerkinElmer TopCount platereader to measure the quantity of ^3H-labeled peptide bound to the Flashplate surface, measured as disintegrations per minute (dpm) or alternatively, referred to as counts per minute (cpm).
Where dpm=disintegrations per minute, cmpd=signal in assay well, and min and max are the respective minimum and maximum signal controls.
Where top and bottom are the normally allowed to float, but may be fixed at 100 or 0 respectively in a 3-parameter fit. The Hill Coefficient normally allowed to float but may also be fixed at 1 in a 3-parameter fit. Y is the % inhibition and X is the compound concentration.
On to `Cc1cc(C)c(CNC(=O)c2cc(C3=CC(C)(C)NC(C)(C)C3)nc3c2cnn3C2COC2)c(=O)[nH]1` [Compound B-15, N-((4,6-dimethyl-2-oxo-1,2-dihydropyridin-3-yl)methyl)-1-(oxetan-3-yl)-6-(2,2,6,6-tetramethyl-1,2,3,6-tetrahydropyridin-4-yl)-1H-pyrazolo[3,4-b]pyridine-4-carboxamide], for which the IC50 was 300 to 1000 nM.
Take `Cc1cc(C)c(CNC(=O)c2cc(C3=CC(C)(C)NC(C)(C)C3)nc3c2cnn3C2CCCCC2)c(=O)[nH]1` [Compound B-16, 1-cyclohexyl-N-((4,6-dimethyl-2-oxo-1,2-dihydropyridin-3-yl)methyl)-6-(2,2,6,6-tetramethyl-1,2,3,6-tetrahydropyridin-4-yl)-1H-pyrazolo[3,4-b]pyridine-4-carboxamide]: the IC50 is < 300 nM.
Under `CC(=O)c1cc(C(=O)NCc2c(C)cc(C)[nH]c2=O)c2cnn(C(C)C)c2n1` [Compound B-17, 6-acetyl-N-((4,6-dimethyl-2-oxo-1,2-dihydropyridin-3-yl)methyl)-1-isopropyl-1H-pyrazolo[3,4-b]pyridine-4-carboxamide] stands 1000 to 3000 nM; under `CNC(=O)c1cc(C(=O)NCc2c(C)cc(C)[nH]c2=O)c2cnn(C(C)C)c2n1` [Compound B-18, N4-((4,6-dimethyl-2-oxo-1,2-dihydropyridin-3-yl)methyl)-1-isopropyl-N6-methyl-1H-pyrazolo[3,4-b]pyridine-4,6-dicarboxamide], 1000 to 3000 nM.
For the compound `Cc1cc(C)c(CNC(=O)c2cc(C3=CCN(C(=O)C4CCNCC4)CC3)nc3c2cnn3C(C)C)c(=O)[nH]1` [Compound B-20, N-((4,6-dimethyl-2-oxo-1,2-dihydropyridin-3-yl)methyl)-1-isopropyl-6-(1-(piperidine-4-carbonyl)-1,2,3,6-tetrahydropyridin-4-yl)-1H-pyrazolo[3,4-b]pyridine-4-carboxamide], the IC50 was < 300 nM.
In the case of `COCc1cc(C)[nH]c(=O)c1CNC(=O)c1cc(C2=CC(C)(C)NC(C)(C)C2)nc2c1cnn2C(C)C` [Compound B-21, 1-isopropyl-N-((4-(methoxymethyl)-6-methyl-2-oxo-1,2-dihydropyridin-3-yl)methyl)-6-(2,2,6,6-tetramethyl-1,2,3,6-tetrahydropyridin-4-yl)-1H-pyrazolo[3,4-b]pyridine-4-carboxamide] it was 300 to 1000 nM; in that of `Cc1cc(C)c(CNC(=O)c2cc(C=O)nc3c2cnn3C(C)C)c(=O)[nH]1` [Compound B-22, N-((4,6-dimethyl-2-oxo-1,2-dihydropyridin-3-yl)methyl)-6-formyl-1-isopropyl-1H-pyrazolo[3,4-b]pyridine-4-carboxamide], < 300 nM.
In the case of `Cc1cc(C)c(CNC(=O)c2cc(C3CCNCC3)nc3c2cnn3C(C)C)c(=O)[nH]1` [Compound B-24, N-((4,6-dimethyl-2-oxo-1,2-dihydropyridin-3-yl)methyl)-1-isopropyl-6-(piperidin-4-yl)-1H-pyrazolo[3,4-b]pyridine-4-carboxamide] it was 300 to 1000 nM; in that of `CCc1cc(C)[nH]c(=O)c1CNC(=O)c1cc(C2=CC(C)(C)NC(C)(C)C2)nc2c1cnn2C(C)C` [Compound B-25, N-((4-ethyl-6-methyl-2-oxo-1,2-dihydropyridin-3-yl)methyl)-1-isopropyl-6-(2,2,6,6-tetramethyl-1,2,3,6-tetrahydropyridin-4-yl)-1H-pyrazolo[3,4-b]pyridine-4-carboxamide], < 300 nM.
For `CCc1nn(C(C)C)c2nc(C3=CC(C)(C)NC(C)(C)C3)cc(C(=O)NCc3c(C)cc(C)[nH]c3=O)c12` [Compound B-26, N-((4,6-dimethyl-2-oxo-1,2-dihydropyridin-3-yl)methyl)-3-ethyl-1-isopropyl-6-(2,2,6,6-tetramethyl-1,2,3,6-tetrahydropyridin-4-yl)-1H-pyrazolo[3,4-b]pyridine-4-carboxamide], the 50% inhibitory concentration (IC50) was 300 to 1000 nM.
As for `Cc1cc(C)c(CNC(=O)c2cc(C3CCN(S(C)(=O)=O)CC3)nc3c2cnn3C(C)C)c(=O)[nH]1` [Compound B-27, N-((4,6-dimethyl-2-oxo-1,2-dihydropyridin-3-yl)methyl)-1-isopropyl-6-(1-(methylsulfonyl)piperidin-4-yl)-1H-pyrazolo[3,4-b]pyridine-4-carboxamide], the IC50 lay in the range of 300 to 1000 nM.
As for `Cc1cc(C)c(CNC(=O)c2cc(C3=CCN(C(=O)C4CCCNC4)CC3)nc3c2cnn3C(C)C)c(=O)[nH]1` (stereo not shown) [Compound B-28, N-((4,6-dimethyl-2-oxo-1,2-dihydropyridin-3-yl)methyl)-1-isopropyl-6-(1-(piperidine-3-carbonyl)-1,2,3,6-tetrahydropyridin-4-yl)-1H-pyrazolo[3,4-b]pyridine-4-carboxamide], the 50% inhibitory concentration (IC50) was < 300 nM.
Regarding `Cc1cc(C)c(CNC(=O)c2cc(C3CCN(C4CCNCC4)CC3)nc3c2cnn3C(C)C)c(=O)[nH]1` [Compound B-29, 6-([1,4′-bipiperidin]-4-yl)-N-((4,6-dimethyl-2-oxo-1,2-dihydropyridin-3-yl)methyl)-1-isopropyl-1H-pyrazolo[3,4-b]pyridine-4-carboxamide], the half-maximal inhibitory concentration (IC50) was < 300 nM.
Under `Cc1cc(C)c(CNC(=O)c2cc(C3=CCN(C(=O)C4CNC4)CC3)nc3c2cnn3C(C)C)c(=O)[nH]1` [Compound B-30, 6-(1-(azetidine-3-carbonyl)-1,2,3,6-tetrahydropyridin-4-yl)-N-((4,6-dimethyl-2-oxo-1,2-dihydropyridin-3-yl)methyl)-1-isopropyl-1H-pyrazolo[3,4-b]pyridine-4-carboxamide] stands < 300 nM.
Take `Cc1cc(C)c(CNC(=O)c2cc(C3=CCN(C(=O)C4CCN(C)C4)CC3)nc3c2cnn3C(C)C)c(=O)[nH]1` (stereo not shown) [Compound B-31, N-((4,6-dimethyl-2-oxo-1,2-dihydropyridin-3-yl)methyl)-1-isopropyl-6-(1-(1-methylpyrrolidine-3-carbonyl)-1,2,3,6-tetrahydropyridin-4-yl)-1H-pyrazolo[3,4-b]pyridine-4-carboxamide]: the IC50 is < 300 nM.
On to `Cc1cc(C)c(CNC(=O)c2cc(C3=CCN(C(=O)C4CCCN(C)C4)CC3)nc3c2cnn3C(C)C)c(=O)[nH]1` (stereo not shown) [Compound B-32, N-((4,6-dimethyl-2-oxo-1,2-dihydropyridin-3-yl)methyl)-1-isopropyl-6-(1-(1-methylpiperidine-3-carbonyl)-1,2,3,6-tetrahydropyridin-4-yl)-1H-pyrazolo[3,4-b]pyridine-4-carboxamide], for which the IC50 is < 300 nM.
As for `Cc1cc(C)c(CNC(=O)c2cc(C3=CCN(C4CCN(CCS(C)(=O)=O)CC4)CC3)nc3c2cnn3C(C)C)c(=O)[nH]1` [Compound B-33, N-((4,6-dimethyl-2-oxo-1,2-dihydropyridin-3-yl)methyl)-1-isopropyl-6-(1-(1-(2-(methylsulfonyl)ethyl)piperidin-4-yl)-1,2,3,6-tetrahydropyridin-4-yl)-1H-pyrazolo[3,4-b]pyridine-4-carboxamide], the IC50 was < 300 nM.
In the case of `Cc1cc(C)c(CNC(=O)c2cc(C3=CCN(C(=O)C4CCN(C)CC4)CC3)nc3c2cnn3C(C)C)c(=O)[nH]1` [Compound B-34, N-((4,6-dimethyl-2-oxo-1,2-dihydropyridin-3-yl)methyl)-1-isopropyl-6-(1-(1-methylpiperidine-4-carbonyl)-1,2,3,6-tetrahydropyridin-4-yl)-1H-pyrazolo[3,4-b]pyridine-4-carboxamide] it was < 300 nM; in that of `Cc1cc(C)c(CNC(=O)c2cc(C3CCN(C4CCN(S(C)(=O)=O)CC4)CC3)nc3c2cnn3C(C)C)c(=O)[nH]1` [Compound B-35, N-((4,6-dimethyl-2-oxo-1,2-dihydropyridin-3-yl)methyl)-1-isopropyl-6-(1′-(methylsulfonyl)-[1,4′-bipiperidin]-4-yl)-1H-pyrazolo[3,4-b]pyridine-4-carboxamide], < 300 nM; in that of `Cc1cc(C)c(CNC(=O)c2cc(C3=CC(C)(C)NC(C)(C)C3)nc3c2cnn3C(C)C)c(=O)[nH]1` [Compound B-36], 300 to 1000 nM.
Take `Cc1cc(C)c(CNC(=O)c2cc(C3=CCN(C4CCNCC4)CC3)nc3c2cnn3C(C)C)c(=O)[nH]1` [Compound B-38]: the IC50 was in the range of 300 to 1000 nM.
Take `CNCC(=O)N1CC=C(c2cc(C(=O)NCc3c(C)cc(C)[nH]c3=O)c3cnn(C(C)C)c3n2)CC1` [Compound B-39]: the IC50 was 300 to 1000 nM.
